{"source": "patent US6420119B1", "about": "“Methods of diagnosing and treating urinary incontinence relating to collagen proteolysis in pelvic supporting tissue” (The Board of Trustees of the Leland Stanford Jr. University, priority 1999, dated 2002)", "key": {"procollagenase [1]": {"system": "procollagenase", "conditions": "pregnant guinea pig cervix; cited from earlier work"}, "TIMP-1": {"system": "TIMP-1", "experiment": "TIMP-1 mRNA expression in cultured human endometrial stromal cells", "type": "cell-based", "conditions": "vs control cells", "excerpt": "(§1) (a) GnRH Agonist: Trophoblast invasion is regulated in part by MMP-9 which can be inhibited by both TIMP-1 and TIMP-3 (25). […] Moreover, the expression of TIMP-1 appeared to be affected to a much greater extent than that of TIMP-3 (26).\n(§2) Our laboratory has examined the ability of IL-1β and transforming growth factor-β (TGF-13) to regulate MMP-9, TIMP-1, and TIMP-3 mRNA expression in cultured human endometrial stromal cells (28). In these cultured endometrial stromal cells, TIMP-1 and TIMP-3 but not MMP-9 mRNA were expressed."}, "TIMP-3": {"system": "TIMP-3", "experiment": "TIMP-3 mRNA expression in cultured human endometrial stromal cells", "type": "cell-based", "conditions": "vs control cells", "excerpt": "as §1, §2"}, "MMP-9": {"system": "MMP-9", "experiment": "MMP-9 mRNA expression in cultured human endometrial stromal cells", "type": "cell-based", "excerpt": "as §2"}, "procollagenase [2]": {"system": "procollagenase", "conditions": "cultured rabbit uterine cervical fibroblasts; cited from earlier work"}, "TIMPs": {"system": "TIMPs", "conditions": "cultured rabbit uterine cervical fibroblasts; cited from earlier work"}, "[3]": {"system": "matrix metalloproteinases", "conditions": "human endometrium during the menstrual cycle; cited from earlier work"}, "collagenase": {"system": "collagenase", "conditions": "human cervix, intravenous; cited from earlier work"}, "[4]": {"conditions": "patients with advanced lung carcinoma; relative to levels required for MMP inhibition in vitro; cited from earlier work"}}, "note": "Structures can show the parent of a compound that is named as a salt.", "data": [{"compound": "IL-1β: cytokine", "values": [{"measurement": "procollagenase production", "setting": "procollagenase [1]", "value": "two-fold increase"}, {"measurement": "TIMP-1 mRNA expression", "setting": "TIMP-1", "value": "decrease"}, {"measurement": "TIMP-3 mRNA expression", "setting": "TIMP-3", "value": "decrease"}, {"measurement": "MMP-9 expression", "setting": "MMP-9", "value": "stimulation"}]}, {"compound": "CC(=O)[C@H]1CC[C@H]2[C@@H]3CCC4=CC(=O)CC[C@]4(C)[C@H]3CC[C@]12C", "note": "[progesterone]", "values": [{"measurement": "levels of procollagenase in the culture medium", "setting": "procollagenase [2]", "value": "declined"}, {"measurement": "level of TIMPs in the culture media", "setting": "TIMPs", "value": "increased"}, {"measurement": "gene expression of matrix metalloproteinases", "setting": "[3]", "value": "repressed"}]}, {"compound": "C[C@]12CC[C@@H]3c4ccc(O)cc4CC[C@H]3[C@@H]1CC[C@@H]2O", "note": "[17β-estradiol]", "values": [{"measurement": "levels of procollagenase in the culture medium", "setting": "procollagenase [2]", "value": "declined"}, {"measurement": "level of TIMPs in the culture media", "setting": "TIMPs", "value": "increased"}, {"measurement": "procollagenase activity", "setting": "procollagenase [1]", "value": "doubled"}]}, {"compound": "C[C@]12CC[C@H](OS(=O)(=O)O)CC1=CC[C@@H]1[C@@H]2CC[C@]2(C)C(=O)CC[C@@H]12", "note": "[DHEAS, dehydroepiandosterone sulfate]", "values": [{"measurement": "increase in collagenase activity", "setting": "collagenase", "value": "over 150%"}]}, {"compound": "CNC(=O)[C@@H](NC(=O)[C@H](CC(C)C)[C@H](O)C(=O)NO)C(C)(C)C", "note": "[Marimastat]", "values": [{"measurement": "plasma levels", "setting": "[4]", "value": "substantially higher than those required for MMP inhibition in vitro"}]}, {"compound": "TGF-β", "values": [{"measurement": "TIMP-1 mRNA expression", "setting": "TIMP-1", "value": "augmented"}, {"measurement": "TIMP-3 mRNA expression", "setting": "TIMP-3", "value": "augmented"}]}]}
